For 3 compounds, IC50 and % (flow cytometry cell surface staining) results are on record in US20260061066A1, “ANTI-GRP78 ANTIBODY, IMMUNOCONJUGATE AND USES THEREOF” (UCT BIOSCIENCE CO., LTD., priority 2024, published 2026).

One may read the IC50 as the concentration that gives 50% inhibition. A higher IC50 goes with weaker potency in that assay.

The test system of one assay is KLM-1. The experiment in a line: In-vitro cytotoxicity, CCK-8 assay. It counts as cell-based. The settings on record: KLM-1 (pancreatic cancer), cell viability after 48 hours. As for the experimental part: (§1) In-Vitro cytotoxicity assays of GID10-ADC, DM1 and GID10 on HL-60, HCC1806, MDA-MB-231, Raji, RPMI8226, NCI-H929, MM.1S, G-361, THP-1, PL45, AsPC-1, KLM-1, OV90, 4Tl and EL-4 cells. Cell viability was measured after 48 hours using Cell Counting Kit-8 (CCK-8) assay (DOJINDO™, Cat. No. CK04-13), as shown in Table 3. For example, on Day 0, THP-1 cells were seeded at […] cells per well in a 96-well plate and treated with diluted test compounds. The cells were incubated for 48 hours at 37° C. with 5% CO2. On Day 2, 20 μl of CCK-8 was added to each well, followed by incubation for 1-4 hours. Absorbance at 450 nm was then measured to assess cell viability and the impact of the test compounds. […] Cell viability was measured after 48 hours using the Cell Counting Kit-8 (CCK-8) assay (DOJINDO™, Cat. No. CK04-13). IC50 (M) was calculated to determine the efficacy of the antibody, DM1, and ADC on the various cancer cell lines.
(§2) In-Vitro cytotoxicity assays of Dxd-conjugated ADC and free payload Dxd on THP-1, NCI-N87, Capan-1, and KLM-1 cells. Cell viability was measured after 48 hours using Cell Counting Kit-8 (CCK-8) assay (DOJINDO™, Cat. No. CK04-13), as shown in Table 4. […] Absorbance at 450 nm was then measured to assess cell viability and the impact of the test compounds. […] Cell viability was measured after 48 hours using the Cell Counting Kit-8 (CCK-8) assay (DOJINDO™, Cat. No. CK04-13). […]

A further assay concerns THP-1 cells. The experiment in a line: In-vitro cytotoxicity, CCK-8 assay. Format: cell-based, human. The conditions noted are these: THP-1 (AML), cell viability after 48 hours. As for the experimental part: as §1, §2
For orientation: Tetrazolium dyes change colour on reduction, which living cells bring about.

Another assay deals with MM.1S. Kind of assay: In-vitro cytotoxicity, CCK-8 assay. It counts as cell-based. The conditions noted are these: MM.1S (MM); cell viability after 48 hours. As for the experimental part:
(§3) In-Vitro cytotoxicity assays of GID10-ADC, DM1 and GID10 on HL-60, HCC1806, MDA-MB-231, Raji, RPMI8226, NCI-H929, MM.1S, G-361, THP-1, PL45, AsPC-1, KLM-1, OV90, 4Tl and EL-4 cells. Cell viability was measured after 48 hours using Cell Counting Kit-8 (CCK-8) assay (DOJINDO™, Cat. No. CK04-13), as shown in Table 3. For example, on Day 0, THP-1 cells were seeded at […] cells per well in a 96-well plate and treated with diluted test compounds. The cells were incubated for 48 hours at 37° C. with 5% CO2. On Day 2, 20 μl of CCK-8 was added to each well, followed by incubation for 1-4 hours. Absorbance at 450 nm was then measured to assess cell viability and the impact of the test compounds. For suspension cells, such as HL-60, Raji, RPMI8226, NCI-H929, MM. 1S, and THP-1, 5×10^4 cells per well were inoculated into a 96-well plate. For adherent cells, such as HCC1806, MDA-MB-231, G361, PL45, AsPC-1, KLM-1, OV90, and EL-4, 1.5-5×10^3 cells per well were inoculated based on their doubling time. Adherent cells with a doubling time of less than 24 hours were seeded at 1.5×10^3 cells per well (EL-4), while those with a doubling time of more than 24 hours were seeded at 5×10^3 cells per well. […] DM1 was used as the positive control agent. The cell lines tested included HL-60, HCC1806, MDA-MB-231, Raji, RPMI8226, NCI-H929, MM.1S, G-361, THP-1, PL45, AsPC-1, KLM-1, OV90, 4T1, and EL-4 cells. Cell viability was measured after 48 hours using the Cell Counting Kit-8 (CCK-8) assay (DOJINDO™, Cat. No. CK04-13). IC50 (M) was calculated to determine the efficacy of the antibody, DM1, and ADC on the various cancer cell lines.

For a further assay, the system named is MDA-MB-231. The experiment in a line: In-vitro cytotoxicity, CCK-8 assay. It counts as cell-based. The settings on record: MDA-MB-231 (TNBC); cell viability after 48 hours. Here is the method: as §3
Another assay relates to OV90. Kind of assay: In-vitro cytotoxicity, CCK-8 assay. It counts as cell-based. The conditions noted are these: OV90 (ovarian cancer); cell viability after 48 hours. As for the experimental part: as §3
The test system of a further assay is G361. Kind of assay: In-vitro cytotoxicity, CCK-8 assay. The settings on record: G361 (melanoma); cell viability after 48 hours. It counts as cell-based. Here is the method: as §3
A further assay relates to RPMI8226. Kind of assay: In-vitro cytotoxicity, CCK-8 assay. Format: cell-based. The settings on record: RPMI8226 (MM); cell viability after 48 hours. As for the experimental part:
as §3

For a further assay, the system named is ASPC1. Kind of assay: In-vitro cytotoxicity, CCK-8 assay. The conditions noted are these: ASPC1 (pancreatic cancer); cell viability after 48 hours. Format: cell-based. Here is the method: as §3
The next assay has as its system HCC1806. Kind of assay: In-vitro cytotoxicity, CCK-8 assay. Format: cell-based. The conditions noted are these: HCC1806 (TNBC); cell viability after 48 hours. Here is the method:
as §3

In another assay the test system is 4T1. Kind of assay: In-vitro cytotoxicity, CCK-8 assay. It counts as cell-based. The settings on record: 4T1 (murine breast cancer, stage IV); cell viability after 48 hours. Here is the method:
as §3

Another assay has as its system Raji. The experiment in a line: In-vitro cytotoxicity, CCK-8 assay. Format: cell-based. The settings on record: Raji (DLBCL); cell viability after 48 hours. Here is the method: as §3
For a further assay, the system named is NCI-H929. Kind of assay: In-vitro cytotoxicity, CCK-8 assay. It counts as cell-based. The settings on record: NCI-H929 (MM); cell viability after 48 hours. As for the experimental part: as §3
Another assay deals with EL4. Kind of assay: In-vitro cytotoxicity, CCK-8 assay. It counts as cell-based. The conditions noted are these: EL4 (murine lymphoma); cell viability after 48 hours. Here is the method: as §3
The test system of another assay is H460. The experiment in a line: In-vitro cytotoxicity, CCK-8 assay. Format: cell-based. The conditions noted are these: H460 (lung cancer); cell viability after 48 hours.
A further assay relates to NCI-N87. The experiment in a line: In-vitro cytotoxicity, CCK-8 assay. It counts as cell-based. The conditions noted are these: NCI-N87 (gastric cancer); cell viability after 48 hours. Here is the method: (§4) In-Vitro cytotoxicity assays of Dxd-conjugated ADC and free payload Dxd on THP-1, NCI-N87, Capan-1, and KLM-1 cells. Cell viability was measured after 48 hours using Cell Counting Kit-8 (CCK-8) assay (DOJINDO™, Cat. No. CK04-13), as shown in Table 4. For example, on Day 0, THP-1 cells were seeded at 5×10^4 cells per well in a 96-well plate and treated with diluted test compounds. The cells were incubated for 48 hours at 37° C. with 5% CO2. On Day 2, 15 μl of CCK-8 was added to each well, followed by incubation for 1-4 hours. Absorbance at 450 nm was then measured to assess cell viability and the impact of the test compounds. For suspension cells, such as THP-1, 2-5×10^4 cells per well were inoculated into a 96-well plate. For adherent cells, such as NCI-N87, Capan-1, and KLM-1, 1.5-5×10^3 cells per well were inoculated based on their doubling time. As shown in FIGS. 6A-6C, THP-1, and KLM-1 cells are not killed in the presence of G1D10 antibody alone. […] Linker-Dxd was used as the positive control agent. The cell lines tested included THP-1, NCI-N87, Capan-1, and KLM-1 cells. Cell viability was measured after 48 hours using the Cell Counting Kit-8 (CCK-8) assay (DOJINDO™, Cat. No. CK04-13). IC50 (M) was calculated to determine the efficacy of the Linker-Dxd and the Dxd-conjugated ADC on the various cancer cell lines.

The test system of another assay is Capan-1. The experiment in a line: In-vitro cytotoxicity, CCK-8 assay. Format: cell-based. The settings on record: Capan-1 (pancreatic cancer); cell viability after 48 hours. As for the experimental part: as §4
The target in assay [1] is cell surface glucose-related protein 78 (GRP78) on cancer cell lines (human) (UniProt P11021). The experiment in a line: flow cytometry, OVCAR3 cells; A488-anti-mouse-IgG alone 1.8%. (In general: Flow cytometry measures light scatter and fluorescence of single cells or particles in a stream.)
Sequence of cell surface glucose-related protein 78 (GRP78) on cancer cell lines (human) (P11021 19-654): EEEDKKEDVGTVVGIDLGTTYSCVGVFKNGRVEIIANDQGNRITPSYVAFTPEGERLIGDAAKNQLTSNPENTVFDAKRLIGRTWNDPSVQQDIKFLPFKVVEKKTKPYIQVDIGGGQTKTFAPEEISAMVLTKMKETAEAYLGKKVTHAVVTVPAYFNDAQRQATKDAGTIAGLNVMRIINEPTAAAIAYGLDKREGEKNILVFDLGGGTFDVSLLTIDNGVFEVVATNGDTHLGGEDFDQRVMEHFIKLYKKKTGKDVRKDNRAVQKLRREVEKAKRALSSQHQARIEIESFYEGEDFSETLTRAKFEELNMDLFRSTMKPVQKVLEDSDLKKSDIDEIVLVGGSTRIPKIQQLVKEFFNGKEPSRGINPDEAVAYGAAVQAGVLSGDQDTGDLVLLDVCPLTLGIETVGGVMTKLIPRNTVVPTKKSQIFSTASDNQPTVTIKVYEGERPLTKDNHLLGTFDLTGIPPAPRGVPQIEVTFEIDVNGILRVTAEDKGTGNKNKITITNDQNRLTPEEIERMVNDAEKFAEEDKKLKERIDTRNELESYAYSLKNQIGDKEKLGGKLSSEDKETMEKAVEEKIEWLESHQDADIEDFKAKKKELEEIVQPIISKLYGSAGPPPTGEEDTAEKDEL

Regarding `COc1cc2cc(c1Cl)N(C)C(=O)C[C@H](OC(=O)[C@H](C)N(C)C(=O)CCS)[C@]1(C)O[C@H]1[C@H](C)[C@@H]1C[C@@](O)(NC(=O)O1)[C@H](OC)/C=C/C=C(\C)C2` [DM1, emtansine (DM1)], the half-inhibitory concentration (IC50) was found to be 1.61 nM in the assay with KLM-1 (Table 3); 4.63 nM in the assay on THP-1 cells (Table 3); 4.86 nM with MM.1S; 28.5 nM with MDA-MB-231; 55.2 nM with OV90; 3.11 nM in the assay on G361. The half-inhibitory concentration (IC50) was found to be 1.79 nM in the assay on RPMI8226; 60.2 nM with ASPC1; 27.2 nM in the assay with HCC1806; 83 nM in the assay with 4T1; 4.35 nM with Raji; 1.13 nM in the assay on NCI-H929. Moreover, the 50% inhibitory concentration (IC50) in the assay on EL4 turned out to be 1.52 nM; in the assay on H460, 1.68 nM.

With “N-hydrozysuccinimide (NHS)-VC-para-aminobenzyl carbamate (PABC)-Dxd [Linker-Dxd]”, the concentration for half-maximal inhibition (IC50) with KLM-1 (Table 4) amounted to 184 nM; in the assay with THP-1 cells (Table 4), 61.2 nM; with NCI-N87, 161 nM; in the assay on Capan-1, 296 nM.

With “anti-GRP78 antibody C38 (eBioscience, Cat. No. 14-9768-82)”, the % (flow cytometry cell surface staining) in assay [1] was found to be 2.3%.
